# Results as given in patent US12240815B2, “Potent and selective human neuronal nitric oxide synthase inhibitors” (Northwestern University, priority 2020, dated 2025).
# Structures can show the parent of a compound that is named as a salt. Where two headings read alike, the source gives them in different places.
# Tests used:
# murine macrophage iNOS = murine macrophage iNOS (Mus musculus, UniProt P29477); experiment: NO hemoglobin capture assay, murine iNOS; format: biochemical
# rat nNOS = rat nNOS (Rattus norvegicus, UniProt P29476); experiment: NO hemoglobin capture assay, rat nNOS; format: biochemical; conditions: for Selectivity n/i: nNOS versus iNOS
# rat nNOS, sequence (P29476 whole entry): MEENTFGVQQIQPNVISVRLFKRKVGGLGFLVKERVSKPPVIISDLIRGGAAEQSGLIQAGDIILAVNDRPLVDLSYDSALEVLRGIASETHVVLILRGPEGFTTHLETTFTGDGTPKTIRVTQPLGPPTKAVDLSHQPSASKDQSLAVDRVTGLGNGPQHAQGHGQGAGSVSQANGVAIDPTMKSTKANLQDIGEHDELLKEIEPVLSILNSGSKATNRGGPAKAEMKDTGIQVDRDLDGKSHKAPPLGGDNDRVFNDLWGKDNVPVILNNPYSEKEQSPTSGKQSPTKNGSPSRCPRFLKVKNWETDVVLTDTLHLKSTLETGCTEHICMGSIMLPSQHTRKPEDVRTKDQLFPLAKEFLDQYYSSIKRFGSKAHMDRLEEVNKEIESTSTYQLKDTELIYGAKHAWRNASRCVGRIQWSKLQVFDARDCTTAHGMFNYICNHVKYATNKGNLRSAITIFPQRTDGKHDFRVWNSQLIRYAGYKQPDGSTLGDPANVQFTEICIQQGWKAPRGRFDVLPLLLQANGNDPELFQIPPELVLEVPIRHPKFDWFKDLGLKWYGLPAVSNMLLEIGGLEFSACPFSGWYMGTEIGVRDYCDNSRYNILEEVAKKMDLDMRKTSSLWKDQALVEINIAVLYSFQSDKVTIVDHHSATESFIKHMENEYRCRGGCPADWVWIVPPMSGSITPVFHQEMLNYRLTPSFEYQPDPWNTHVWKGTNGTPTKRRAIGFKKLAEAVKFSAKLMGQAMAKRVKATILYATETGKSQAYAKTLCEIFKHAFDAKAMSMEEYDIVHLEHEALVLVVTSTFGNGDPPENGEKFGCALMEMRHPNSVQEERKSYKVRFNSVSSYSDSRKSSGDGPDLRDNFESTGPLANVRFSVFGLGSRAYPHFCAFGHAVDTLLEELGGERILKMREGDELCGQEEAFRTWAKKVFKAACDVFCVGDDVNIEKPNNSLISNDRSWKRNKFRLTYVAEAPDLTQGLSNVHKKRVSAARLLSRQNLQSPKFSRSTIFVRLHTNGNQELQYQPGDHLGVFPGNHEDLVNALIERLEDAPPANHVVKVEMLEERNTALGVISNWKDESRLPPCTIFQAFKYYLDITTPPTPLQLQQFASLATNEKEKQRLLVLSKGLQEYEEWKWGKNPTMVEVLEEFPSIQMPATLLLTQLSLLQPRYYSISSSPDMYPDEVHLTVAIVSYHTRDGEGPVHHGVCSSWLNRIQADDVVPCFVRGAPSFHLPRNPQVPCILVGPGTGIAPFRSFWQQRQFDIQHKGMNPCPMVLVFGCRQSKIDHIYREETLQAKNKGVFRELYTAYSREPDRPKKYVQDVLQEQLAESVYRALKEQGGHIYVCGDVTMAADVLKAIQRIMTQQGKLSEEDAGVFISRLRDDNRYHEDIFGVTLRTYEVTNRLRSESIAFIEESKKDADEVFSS
# human nNOS = human nNOS (Homo sapiens, UniProt P29475); experiment: NO hemoglobin capture assay, human nNOS; format: biochemical; conditions: for Selectivity Human n/e: human nNOS versus human eNOS
# human nNOS, sequence (P29475 whole entry): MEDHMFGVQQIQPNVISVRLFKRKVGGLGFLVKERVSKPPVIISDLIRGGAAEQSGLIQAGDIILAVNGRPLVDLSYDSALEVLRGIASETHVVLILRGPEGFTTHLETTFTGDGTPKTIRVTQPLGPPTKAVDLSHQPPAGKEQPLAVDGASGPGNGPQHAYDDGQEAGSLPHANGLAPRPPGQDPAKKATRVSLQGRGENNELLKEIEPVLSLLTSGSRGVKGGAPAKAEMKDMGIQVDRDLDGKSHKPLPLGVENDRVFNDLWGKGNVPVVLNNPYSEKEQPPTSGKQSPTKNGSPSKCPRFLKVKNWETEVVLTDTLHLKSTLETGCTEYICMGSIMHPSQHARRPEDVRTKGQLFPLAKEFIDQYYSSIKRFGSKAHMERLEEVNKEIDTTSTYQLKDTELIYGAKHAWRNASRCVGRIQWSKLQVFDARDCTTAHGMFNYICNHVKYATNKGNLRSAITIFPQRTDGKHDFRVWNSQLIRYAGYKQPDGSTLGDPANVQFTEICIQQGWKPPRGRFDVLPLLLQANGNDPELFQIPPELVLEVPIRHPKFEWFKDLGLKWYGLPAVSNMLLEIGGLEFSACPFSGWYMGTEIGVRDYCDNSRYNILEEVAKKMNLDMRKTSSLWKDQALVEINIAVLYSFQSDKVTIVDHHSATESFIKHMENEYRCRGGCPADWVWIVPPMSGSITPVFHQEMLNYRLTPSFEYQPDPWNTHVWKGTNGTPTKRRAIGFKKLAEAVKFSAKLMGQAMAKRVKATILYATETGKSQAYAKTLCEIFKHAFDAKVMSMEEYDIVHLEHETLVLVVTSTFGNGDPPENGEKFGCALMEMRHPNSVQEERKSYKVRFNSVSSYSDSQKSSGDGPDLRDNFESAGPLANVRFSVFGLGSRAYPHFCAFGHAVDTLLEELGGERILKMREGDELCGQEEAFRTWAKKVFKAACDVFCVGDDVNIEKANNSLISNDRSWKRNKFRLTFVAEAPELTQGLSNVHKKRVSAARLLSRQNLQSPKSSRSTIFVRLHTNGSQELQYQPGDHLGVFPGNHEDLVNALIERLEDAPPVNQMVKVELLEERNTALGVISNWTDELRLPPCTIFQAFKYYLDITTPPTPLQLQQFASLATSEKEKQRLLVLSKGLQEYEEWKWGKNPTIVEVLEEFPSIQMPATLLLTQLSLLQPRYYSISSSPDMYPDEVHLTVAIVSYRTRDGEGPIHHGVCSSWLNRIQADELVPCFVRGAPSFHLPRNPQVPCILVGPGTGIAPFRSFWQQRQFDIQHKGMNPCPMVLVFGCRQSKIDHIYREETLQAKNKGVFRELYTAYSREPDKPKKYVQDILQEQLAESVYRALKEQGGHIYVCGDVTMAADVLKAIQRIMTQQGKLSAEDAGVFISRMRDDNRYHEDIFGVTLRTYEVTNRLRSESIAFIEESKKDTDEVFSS
# human iNOS = human iNOS (Homo sapiens, UniProt P35228); experiment: NO hemoglobin capture assay, human iNOS
# human eNOS = human eNOS (Homo sapiens, UniProt P29474); experiment: NO hemoglobin capture assay, human eNOS
# PAMPA-BBB assay = conditions: for Papp at 17 h, 200 μM: PAMPA, pH 7.5; for Pe PAMPA-BBB: Table 4
# iNOS = iNOS (Mus musculus, UniProt P29477); experiment: NO hemoglobin capture assay, iNOS (Table 4, species not given)
# [1] = Table 1, Ki from IC50 by Cheng-Prusoff, 10 μM L-Arg, pH 7.4, 37° C.
# [2] = pH 7.4, read-out: Ki human nNOS
# [3] = Table 4, read-out: Ki Human nNOS
# [4] = read-out: Ki HiNOS, Table 5, Ki from IC50 by Cheng-Prusoff, 8 to 11 concentrations
# [5] = Table 5, Ki from IC50 by Cheng-Prusoff, 8 to 11 concentrations, read-out: Ki HnNOS
# [6] = Table 5, Ki from IC50 by Cheng-Prusoff, 8 to 11 concentrations, read-out: Ki RnNOS
smiles,measurement,setting,value
"CNCC#Cc1cc(F)cc(CCc2cc(C)cc(N)n2)c1 [Compound 2, 6-(3-fluoro-5-(3-(methylamino)prop-1-yn-1-yl)phenethyl)-4-methylpyridin-2-amine]",Ki,murine macrophage iNOS; [1],7620 nM
same,Ki,"rat nNOS; pH 7.4, read-out: Ki rat nNOS",32 nM
same,Ki,human nNOS; [2],58 nM
"Cc1cc(N)nc(CCc2cc(F)cc(C#CCN(C)C)c2)c1 [Compound 3, 6-(3-(3-(dimethylamino)prop-1-yn-1-yl)-5-fluorophenethyl)-4-methylpyridin-2-amine]",Ki,murine macrophage iNOS; [1],4890 nM
same,drop in rat nNOS potency compared to 1,rat nNOS,more than 2 fold
same,Ki,"rat nNOS; pH 7.4, read-out: Ki rat nNOS",58 nM
same,drop in human nNOS potency compared to 1,human nNOS,> 4 fold
same,Ki,human nNOS; [2],124 nM
"Cc1cc(N)nc(CCc2cc(F)cc(CC[C@@H]3CCCN3C)c2)c1 [Compound 5, (R)-6-(3-fluoro-5-(2-(1-methylpyrrolidin-2-yl)ethyl)phenethyl)-4-methylpyridin-2-amine]",Ki,murine macrophage iNOS; [1],2910 nM
same,Ki,"rat nNOS; pH 7.4, read-out: Ki rat nNOS",26 nM
same,Ki,human nNOS; [2],52 nM
"Cc1cc(N)nc(CCc2cc(F)cc(CC[C@H]3CCCN3C)c2)c1 [Compound 7, (S)-6-(3-fluoro-5-(2-(1-methylpyrrolidin-2-yl)ethyl)phenethyl)-4-methylpyridin-2-amine]",Ki,murine macrophage iNOS; [1],3390 nM
same,Ki,"rat nNOS; pH 7.4, read-out: Ki rat nNOS",33 nM
same,Ki,human nNOS; [2],84 nM
"Cc1cc(N)nc(CCc2cc(F)cc(CC[C@@H]3C[C@H](F)CN3)c2)c1 [Compound 8, 6-(3-fluoro-5-(2-((2R,4S)-4-fluoropyrrolidin-2-yl)ethyl)phenethyl)-4-methylpyridin-2-amine]",Ki,murine macrophage iNOS; [1],4540 nM
same,Ki,"rat nNOS; pH 7.4, read-out: Ki rat nNOS",65 nM
same,drop in human nNOS potency compared to 1,human nNOS,4 fold
same,Ki,human nNOS; [2],129 nM
"Cc1cc(N)nc(CCc2cc(F)cc(CC[C@@H]3C[C@H](F)CN3C)c2)c1 [Compound 9, 6-(3-fluoro-5-(2-((2R,4S)-4-fluoro-1-methylpyrrolidin-2-yl)ethyl)phenethyl)-4-methylpyridin-2-amine]",Ki,murine macrophage iNOS; [1],5010 nM
"Cc1cc(N)nc(CCc2cc(CCCN(C)C)cc(F)c2F)c1 [Compound 10, 6-(5-(3-(dimethylamino)propyl)-2,3-difluorophenethyl)-4-methylpyridin-2-amine]",Ki,human iNOS; read-out: Ki human iNOS,1310 nM
same,Ki,murine macrophage iNOS; pH 7.4,823 nM
same,Ki,"rat nNOS; pH 7.4, read-out: Ki rat nNOS",19 nM
same,Ki,human eNOS; read-out: Ki human eNOS,35000 nM
"Cc1cc(N)nc(CCc2cc(F)cc(CCCN(C)C)c2F)c1 [Compound 12, 6-(3-(3-(dimethylamino)propyl)-2,5-difluorophenethyl)-4-methylpyridin-2-amine]",Ki,murine macrophage iNOS; [1],1950 nM
same,Ki,"rat nNOS; pH 7.4, read-out: Ki rat nNOS",79 nM
same,Ki,human nNOS; [2],157 nM
"Cc1cc(N)nc(CCc2c(F)c(F)cc(CCCN(C)C)c2F)c1 [Compound 13, 6-(3-(3-(dimethylamino)propyl)-2,5,6-trifluorophenethyl)-4-methylpyridin-2-amine]",Ki,murine macrophage iNOS; [1],3260 nM
same,Ki,"rat nNOS; pH 7.4, read-out: Ki rat nNOS",47 nM
same,Ki,human nNOS; [2],58 nM
"Cc1cc(N)nc(CCc2cc(C#CCN(C)C)cc(F)c2F)c1 [Compound 16, 6-(5-(3-(dimethylamino)prop-1-yn-1-yl)-2,3-difluorophenethyl)-4-methylpyridin-2-amine]",Ki,murine macrophage iNOS; [1],4410 nM
same,Ki,"rat nNOS; pH 7.4, read-out: Ki rat nNOS",81 nM
same,Ki,human nNOS; [2],84 nM
"Cc1cc(N)nc(CCc2cc(CC[C@@H]3CCCN3C)cc(F)c2F)c1 [Compound 17, (R)-6-(2,3-difluoro-5-(2-(1-methylpyrrolidin-2-yl)ethyl)phenethyl)-4-methylpyridin-2-amine]","Papp at 17 h, 200 μM",PAMPA-BBB assay,~18 ×10⁻⁶ cm/s
"Cc1cc(N)nc(CCc2cc(CC[C@H]3CCCN3C)cc(F)c2F)c1 [Compound 18, (S)-6-(2,3-difluoro-5-(2-(1-methylpyrrolidin-2-yl)ethyl)phenethyl)-4-methylpyridin-2-amine]","Papp at 17 h, 200 μM",PAMPA-BBB assay,~18 ×10⁻⁶ cm/s
"Cc1cc(N)nc(CCc2cc(CC[C@H]3COCCN3C)cc(F)c2F)c1 [Compound 19, (S)-6-(2,3-difluoro-5-(2-(4-methylmorpholin-3-yl)ethyl)phenethyl)-4-methylpyridin-2-amine]",Ki,murine macrophage iNOS; [1],3450 nM
same,Ki,"rat nNOS; pH 7.4, read-out: Ki rat nNOS",62 nM
same,Ki,human nNOS; [2],89 nM
"CCO[C@@H]1C[C@H](CCc2cc(F)c(F)c(CCc3cc(C)cc(N)n3)c2)N(C)C1 [Compound 20, 6-(5-(2-((2S,4R)-4-ethoxy-1-methylpyrrolidin-2-yl)ethyl)-2,3-difluorophenethyl)-4-methylpyridin-2-amine]",Ki,murine macrophage iNOS; [1],4500 nM
same,Ki,"rat nNOS; pH 7.4, read-out: Ki rat nNOS",55 nM
same,Ki,human nNOS; [2],87 nM
CNC/C=C\c1cc(F)cc(CCc2cc(C)cc(N)n2)c1 [Compound 47],Ki,iNOS,2280 nM
same,Selectivity n/i,rat nNOS; Table 4,73
same,Ki,"rat nNOS; Table 4, read-out: Ki Rat nNOS",31 nM
same,Selectivity nNOS human/rat,human nNOS; Table 4,2.5
same,Selectivity Human n/e,human nNOS; Table 4,320
same,Ki,human nNOS; [3],77 nM
same,Ki,human eNOS,24700 nM
same,Pe PAMPA-BBB,PAMPA-BBB assay,10.92 ± 0.02 10^-6 cm/s
CNC/C=C/c1cc(F)cc(CCc2cc(C)cc(N)n2)c1 [Compound 48],Ki,iNOS,2730 nM
same,Selectivity n/i,rat nNOS; Table 4,130
same,Ki,"rat nNOS; Table 4, read-out: Ki Rat nNOS",21 nM
same,Selectivity nNOS human/rat,human nNOS; Table 4,1.3
same,Selectivity Human n/e,human nNOS; Table 4,721
same,Ki,human nNOS; [3],28 nM
same,Ki,human eNOS,20200 nM
same,Pe PAMPA-BBB,PAMPA-BBB assay,10.30 ± 0.02 10^-6 cm/s
CNCc1ccc2ncc(CCc3cc(C)cc(N)n3)cc2c1 [Compound 49],Ki,iNOS,3760 nM
same,Selectivity n/i,rat nNOS; Table 4,99
same,Ki,"rat nNOS; Table 4, read-out: Ki Rat nNOS",38 nM
same,Selectivity nNOS human/rat,human nNOS; Table 4,0.9
same,Selectivity Human n/e,human nNOS; Table 4,614
same,Ki,human nNOS; [3],36 nM
same,Ki,human eNOS,22100 nM
same,Pe PAMPA-BBB,PAMPA-BBB assay,No permeability
CNCC#Cc1cc(F)c(F)c(CCc2cc(C)cc(N)n2)c1F [Compound 50],Ki,iNOS,5780 nM
same,Selectivity n/i,rat nNOS; Table 4,48
same,Ki,"rat nNOS; Table 4, read-out: Ki Rat nNOS",119 nM
same,Selectivity nNOS human/rat,human nNOS; Table 4,1.4
same,Selectivity Human n/e,human nNOS; Table 4,157
same,Ki,human nNOS; [3],168 nM
same,Ki,human eNOS,26500 nM
same,Pe PAMPA-BBB,PAMPA-BBB assay,19.10 ± 0.5 10^-6 cm/s
Cc1cc(N)nc(CCc2c(F)c(F)cc(CC[C@@H]3CCCN3C)c2F)c1 [Compound 51],Ki,iNOS,5880 nM
same,Selectivity n/i,rat nNOS; Table 4,88
same,Ki,"rat nNOS; Table 4, read-out: Ki Rat nNOS",67 nM
same,Selectivity nNOS human/rat,human nNOS; Table 4,1.7
same,Selectivity Human n/e,human nNOS; Table 4,266
same,Ki,human nNOS; [3],112 nM
same,Ki,human eNOS,29800 nM
same,Pe PAMPA-BBB,PAMPA-BBB assay,20 ± 0.85 10^-6 cm/s
Cc1cc(N)nc(CCc2c(F)c(F)cc(CC[C@H]3CCCN3C)c2F)c1 [Compound 52],Ki,iNOS,10000 nM
same,Selectivity n/i,rat nNOS; Table 4,108
same,Ki,"rat nNOS; Table 4, read-out: Ki Rat nNOS",93 nM
same,Selectivity nNOS human/rat,human nNOS; Table 4,1.62
same,Selectivity Human n/e,human nNOS; Table 4,196
same,Ki,human nNOS; [3],151 nM
same,Ki,human eNOS,27300 nM
same,Pe PAMPA-BBB,PAMPA-BBB assay,20.3 ± 0.16 10^-6 cm/s
Cc1cc(N)nc(CCc2cc(CN(C)C)cc(F)c2F)c1 [Compound 54],Ki,iNOS,76 nM
"Cc1cc(N)nc(CCc2cc(CCN(C)C)cc(F)c2F)c1 [Compound 58, 6-(5-(2-(Dimethylamino)ethyl)-2,3-difluorophenethyl)-4-methylpyridin-2-amine hydrochloride]",Ki,iNOS,1050 nM
same,Pe PAMPA-BBB,PAMPA-BBB assay,19.5 ± 1.4 10^-6 cm/s
"CN(C)CCc1cc(F)c(F)c(CCc2cccc(N)n2)c1 [Compound 59, 6-(5-(2-(Dimethylamino)ethyl)-2,3-difluorophenethyl)pyridin-2-amine hydrochloride]",Ki,"rat nNOS; Ki RnNOS, Table 5, Ki from IC50 by Cheng-Prusoff, 8 to 11 concentrations",940 nM
same,Ki,human nNOS,3160 nM
"CNCCc1cc(F)c(F)c(CCc2cc(C)cc(N)n2)c1 [Compound 60, 6-(2,3-Difluoro-5-(2-(methylamino)ethyl)phenethyl)-4-methylpyridin-2-amine]",Ki,human iNOS,1750 nM
same,Ki,rat nNOS,28 nM
same,Ki,human nNOS,24 nM
same,Selectivity hn/hi,human nNOS; Table 5,72
same,Selectivity hn/rn,human nNOS; Table 5,1.2
"CN(C)CCc1cc(F)c(F)c(CCc2cc(C(F)(F)F)cc(N)n2)c1 [Compound 64, 6-(5-(2-(Dimethylamino)ethyl)-2,3-difluorophenethyl)-4-(trifluoromethyl)pyridin-2-amine]",Ki,human eNOS,102000 nM
"Nc1cc(Cl)cc(OCc2cccc(F)c2F)n1 [Compound 68, 4-Chloro-6-((2,3-difluorobenzyl)oxy)pyridin-2-aminehydrochloride]",Ki,rat nNOS; read-out: Ki RnNOS,102000 nM
"Cc1cc(N)nc(CCCN(C)C)c1 [Compound 69, 6-(3-(Dimethylamino)propyl)-4-methylpyridin-2-amine hydrochloride]",Ki,human iNOS; [4],2830 nM
same,Ki,human nNOS; [5],29 nM
same,Ki,human eNOS,537 nM
"CNCCCc1cc(C)cc(N)n1 [Compound 70, 4-Methyl-6-(3-(methylamino)propyl)pyridin-2-amine hydrochloride]",Ki,human iNOS; [4],669 nM
same,Ki,rat nNOS; [6],29 nM
same,Selectivity hn/rn,human nNOS; Table 5,1.4
same,Ki,human nNOS; [5],21 nM
"CNCC#Cc1cc(C)cc(N)n1 [Compound 71, 4-Methyl-6-(3-(methylamino)prop-1-yn-1-yl)pyridin-2-amine hydrochloride]",Ki,human iNOS; [4],3580 nM
same,Ki,rat nNOS; [6],88 nM
same,Selectivity hn/rn,human nNOS; Table 5,1.0
same,Ki,human nNOS; [5],92 nM
"Cc1cc(N)nc(CCCN2CCN(C)CC2)c1 [Compound 72, 4-Methyl-6-(3-(4-methylpiperazin-1-yl)propyl)pyridin-2-amine]",Ki,human iNOS; [4],10200 nM
same,Ki,rat nNOS; read-out: Ki RnNOS,55 nM
same,Selectivity hn/rn,human nNOS; Table 5,3.0
same,Ki,human nNOS; [5],171 nM
"Cc1cc(N)nc(C#CCN2CCN(C)CC2)c1 [Compound 73, 4-Methyl-6-(3-(4-methylpiperazin-1-yl)prop-1-yn-1-yl)pyridin-2-amine]",Ki,human iNOS; [4],114000 nM
same,Ki,rat nNOS; [6],947 nM
same,Selectivity hn/rn,human nNOS; Table 5,2.2
same,Ki,human nNOS; [5],2120 nM
